We go through one compound from patent US20140158116A1, “INHIBITING TRPA1 FOR THE TREATMENT OF ASTHMA” (Cubist Pharmaceuticals, Inc., priority 2012, published 2014).

In assay [1] the test system is Ascaris suum antigen-induced pulmonary resistance. The assay is described as follows: Sheep allergic asthma model, pulmonary resistance (RL) after Ascaris suum antigen. It is filed as in vivo. How it is done: Compounds were tested in the sheep model of experimental asthma reported in Abraham W M, Asthma & Rhinitis, 2000: 1205-1227 incorporated herein by reference in its entirety.
The unsedated sheep were restrained in a cart in the prone position with their heads immobilized. After topical anesthesia of the nasal passages with 2% lidocaine solution, a balloon catheter was advanced through one nostril into the lower esophagus. The sheep were intubated with a cuffed endotracheal tube through the other nostril. Pleural pressure was estimated with the esophageal balloon catheter. Lateral pressure in the trachea was measured with a sidehole catheter (inner dimension, 2.5 mm) advanced through and positioned distal to the tip of the endotracheal tube. Transpulmonary pressure, the difference between tracheal and pleural pressure, was measured with a differential pressure transducer catheter system. For the measurement of pulmonary resistance (RL), the proximal end of the endotracheal tube was connected to a pneumotachograph. […]
Baseline concentration response curves to aerosol Carbachol were obtained 1 to 3 days before commencement of drug/vehicle treatment. […] Baseline values of pulmonary resistance (RL) were obtained within 30 minutes of treatment and then re-measured 30 minutes before antigen challenge. […]

Assay [2] concerns CFA-induced cold allodynia. The assay is described as follows: Complete Freund's Adjuvant (CFA) cold allodynia rodent pain model. The class given is in vivo. The conditions noted are these: vehicle 19.8. How it is done:
The compound of Formula (Ia) is also active in rodent models of pain in vivo induced by cold allodynia following chronic Complete Freund's Adjuvant-induced inflammation, as described in Example 6. […] The compound of Formula (Ia), the comparator compound of Formula (II) and ketoprofen were tested by the CFA-induced pain test method reported in del Camino et al., J. Neurosci., 30(45):15165-15174, incorporated herein by reference in its entirety. Briefly, the hind paw was sensitized to cold temperature (allodynic), by administering 0.1 mL of Complete Freund's Adjuvant (CFA) to the left hind paw. 2-3 days later, the time taken for the animal to lift its CFA-injected paw was recorded compared to its un-injected normal right hind paw. […] To avoid tissue damage the maximum cut-off time was 5 minutes. Animals that were allodynic (average PWL to the first three pain behaviors <150 seconds for the CFA-injected hind paw: ˜≧50% difference between the normal and CFA-injected paw) were included in the study and subsequently randomized across treatment groups. The following day, the animals were dosed under blinded conditions. Following the 1-2 hour pre-treatment time, the post-dose PWL readings were again taken. The efficacy of the drug treatment was assessed by comparing the PWL in the drug treatment animals to those animals that received the vehicle.

The subject of assay [3] is formalin-induced pain behavior. Kind of assay: Formalin-induced pain behavior in vivo rodent model. More on the design: species or system rat. The conditions noted are these: vehicle 88.6. The text has this:
The data shown in Tables 3a, 3b, and 3c and FIG. 2 were obtained by administering a pharmaceutical composition comprising the compound of Formula (Ia) to rodents in the formalin-induced pain duration at various doses according to Example 5. Specifically, the data in Tables 3a, 3b, and 3c and FIG. 2 were obtained by intraperitoneal (i.p.) administration of compositions containing different concentrations of the compound of Formula (Ia), a comparator composition containing recited amounts of the comparator compound (e.g., 150 mg/kg of the comparator compound of Formula (II) in Table 3a) and a control composition containing the vehicle (e.g., without the compound of Formula (Ia) or a comparator compound).
The compound of Formula (Ia) and the comparator compounds of Formula (II) and Formula (III) were tested in the formalin-induced pain test reported by Dubuisson et al., Pain 1977 December; 4(2):161-74 (incorporated herein by reference in its entirety). Dubuisson et al. (1977) describe a method for assessing pain and analgesia in rats and cats. Briefly, dilute formalin (50 μL of 3% formalin) is injected into the plantar surface of the hind paw. […] The individual responsible for counting the pain behaviors in a particular study is blinded to the treatment groups.
Rats were treated with the HCl salt of Compound (Ia) at various doses (3, 10, 30, and 50 mg/kg, IP) or with the vehicle (IP).

For `C[C@H]1CCCN1c1ncc(-c2cccc(NC(=O)Cn3cnc4c3c(=O)n(C)c(=O)n4C)n2)cn1` [Formula (Ia)], the “inhibition of late phase pulmonary resistance response” value in assay [1] (5 mg/kg PO daily for 4 days) is reported as approximately 45%; in assay [1] (10 mg/kg PO daily for 4 days) it was “approximately 75%”. For the same compound, the “Change in Paw Withdrawal Latency” value in assay [2] (1 mg/kg i.p., cold plate) turned out to be 38.4; in assay [2] (5 mg/kg i.p.), 45.0; in assay [2] (10 mg/kg i.p.) it was 117.6; in assay [2] (30 mg/kg i.p.) it was 134.4; in assay [2] (50 mg/kg i.p.), 177.8. The “Duration of Pain Behavior” value turned out to be 82.3 s in assay [3] (3 mg/kg i.p.), 85.8 s in assay [3] (10 mg/kg i.p.), 49.8 s in assay [3] (30 mg/kg i.p.) and 5.9 s in assay [3] (50 mg/kg i.p.).
